Test results from patent US20200397894A1, “COMPOSITIONS AND METHODS FOR TREATING CANCER” (University of Virginia Patent Foundation, priority 2016, published 2020).

What was measured:
Format in all cases: cell-based, human
DM93 cells = test: Senescence-associated β-galactosidase assay; settings: DM93, pevonedistat, as early as 48 hours post-treatment
Method: Senescence was monitored using β-galactosidase (β-gal) staining. Following the various treatments, cells were washed twice with PBS, fixed with 2% formaldehyde/0.2% gluteraldehyde in PBS for 15 minutes at room temperature, and washed twice with PBS. The cells were stained with fresh X-Gal solution (1 mg/ml X-gal, 40 mM C6H8O7.H2O, 5 mM K3Fe(CN)6, 5 mM K4Fe(CN)6.3H2O, 150 mM NaCl, and 2 mM MgCl2.6H2O in PBS) for 3-12 hours at 37° C. in the dark. Cells were washed three times in PBS and fixed with 100% methanol for 5 minutes at room temperature. Bright field blue color images were taken with an AMG EVOS® XL Core Imager/camera microscope (Life Technologies, Inc., Carlsbad, Calif., United States of America) counting at least 100 cells from at least 3 fields.

[1] = test system: hTERT-transformed keratonocytes (OKF6-TERT2); test: Rereplication by FACS in control keratinocytes
Method: The effect of pevonedistat treatment or CDT2, geminin, or EMI1 knockdown on the cell cycle (and induction of DNA rereplication) was assessed by flow cytometry with propidium iodide (PI) staining. Cells were harvested at 72 or 96 hours post-treatment with pevonedistat or post-transfection, respectively. Cells were collected, washed with PBS, and resuspended in ethanol (75%). Cells were subsequently treated with 20 μg of DNase-free RNase and stained with PI following the manufacturer's protocol. FACSCAN™ (Becton, Dickinson and Company, Franklin Lakes, N.J., United States of America) was used to analyze the samples and G0-G1, S, and G2-M fractions were segmented. Subsequent analysis using FLOWJO® (FLOWJO, LLC, Ashland, Oreg., United States of America) and ModFit (Verity Software House, Topsham, Me., United States of America) software was used to determine apoptotic and re-replicating fractions. Where indicated, Cal27 and FaDu cells were treated with pevonedistat for 48 hours and pulsed with BrdU (10 nM) for 1 hour in the dark prior to harvesting. […] Sampled were analyzed on a FACSCAN™ (Becton, Dickinson and Company, Franklin Lakes, N.J., United States of America), and different fractions of BrdU positive cells were determined using FLOWJO® (FLOWJO, LLC, Ashland, Oreg., United States of America) and ModFit (Verity Software House, Topsham, Me., United States of America) software.

[2] = test system: non-malignant melanocytes PIG3V; test: Rereplication by FACS in non-malignant melanocytes; settings: 48 hours following treatment
Method: The effects of pevonedistat, vemurafenib, and/or silencing of various cell cycle-associated proteins by siRNA on cell cycle distribution and rereplication were assessed by propidium iodide staining and flow cytometry of asynchronous melanoma cultures. Synchronization of cells was not employed to avoid bias and to be able to measure the impact of these perturbations on proliferating cancer cells. Briefly, asynchronous melanoma cell lines were treated with pevonedistat or vemurafenib, or transfected with si-CDT1, si-CDT2, si-SET8, si-p21, sigeminin, si-EMI1, or si-GL2 for a time ranging from 24 to 96 hours. Cells were washed with cold PBS, harvested, and fixed in 70% (v/v) ethanol. Cells were subsequently treated with 20 μg of DNase-free RNase and stained with propidium iodide according to instructions of the manufacturer. Samples were analyzed on a FACSCAN™ (Becton, Dickinson and Company, Franklin Lakes, N.J., United States of America) and G0-G1, S, and G2-M fractions were segmented, and apoptotic (sub-G1 DNA content) and rereplicating (>G2/M DNA content) fractions were determined using FLOWJO® (FLOWJO, LLC, Ashland, Oreg., United States of America) and ModFit (Verity Software House, Topsham, Me., United States of America) software.

With NS(=O)(=O)OCC1CC(n2ccc3c(NC4CCc5ccccc54)ncnc32)CC1O [pevonedistat, ((1S,2S,4R)-4-(4-((1S)-2,3-Dihydro-H-inden-1-ylamino)-7H-pyrrolo(2,3-d)pyrimidin-7-yl)-2-hydroxycyclopentyl)methyl sulphamate] the senescence (DM93 cells) was “majority of cells underwent senescence”, the DNA rereplication [1] was “not observed” and the rereplication [2] was “less than 3%”.
